# Experimental data from patent publication US11447482B1, “Imidazopyridine and oxazolopyridine derivatives and analogs thereof, methods of preparation thereof, methods of HIF-2A pathway inhibition, and induction of ferroptosis” (KUDA Therapeutics, Inc., priority 2019, dated 2022).
# Target: HIF-2α transcriptional activity
# Experiment: Hypoxia-responsive element-driven luciferase (HRE-Luc) assay
# Assay type: cell-based, human
# Conditions: 786-0 CCRCC cells stably expressing HRE-Luc, 24 hours treatment
# Procedure: Screens for inhibitory activity of compounds described herein were performed using 786-0 CCRCC cells that stably express HRE-Luc: 5 copies of the hypoxia-responsive element (HRE) fused to the pGL3 luciferase reporter (Promega Corp, Madison Wis.). 786-0 cells are pVHL deficient and thus constitutively express HIF-2α independently of cellular oxygen tension (Maxwell, Wiesener et al. 1999). Since 786-0 cells lack HIF-1α, HRE-driven luciferase activity is primarily HIF-2α driven, and has been previously validated (Koh, Lemos et al. 2011). Cells were maintained at log phase growth in Dulbecco's […] (DMEM) with 10% FBS in a humidified incubator at 37° C. with 5% CO2. For screening assays, cells were seeded at a density of 4,000 cells in 50 μl of complete media/well in quadruplicate wells/point in a 96-well plate. 24 hours later, 50 μl of a 2× concentration of test compound was added to each well. Compounds were diluted from a 5-10 mM stock in DMSO and final concentrations of DMSO in each well in controls and treated wells were kept constant at ≤0.6% DMSO. After 24 hours' treatment, luciferase activity was measured using the Steady-Glo Luciferase assay system (Promega Corp) according to the manufacturer's protocol. Cell viability was measured in quadruplicate parallel wells using resazurin as recommended by the manufacturer (R&D systems, Minneapolis, Minn.). Data for luciferase and resazurin were normalized to DMSO treated controls (defining 100%) and wells containing assay reagent but no cells (defining 0%), and graphed using the log inhibitor versus normalized response option in Prism7 Graphpad software. Representative data determined using Steady-Glo luciferase and resazurin are shown in FIGS. 1A and 1B respectively, with error bars showing standard error of the mean (SEM).
row,Structure (SMILES),IC50 [µM]
1,"COc1ccc(-c2nnc(Nc3nc4c(Cl)nccc4[nH]3)o2)cc1 [KD022, N-(4-chloro-1H-imidazo[4,5-c]75yridine-2-yl)-5-(4-methoxyphenyl)-1,3,4-oxadiazol-2-amine]",28.3

# Same assay, conditions: Homo sapiens; 786-0 CCRCC cells stably expressing HRE-Luc, 24 hours treatment
row,IC50 [µM],Structure (SMILES)
1,32.6,"COc1nccc2[nH]c(Nc3nnc(-c4ccc(C(F)(F)F)cc4)o3)nc12 [KD019, N-(4-methoxy-1H-imidazo[4,5-c]pyridin-2-yl)-5-(4-(trifluoromethyl)phenyl)-1,3,4-oxadiazol-2-amine]"
2,16.5,"COc1nccc2[nH]c(Nc3nnc(-c4ccc(OC(F)(F)F)cc4)o3)nc12 [KD020, N-(4-methoxy-1H-imidazo[4,5-c]pyridin-2-yl)-5-(4-(trifluoromethoxy)phenyl)-1,3,4-oxadiazol-2-amine]"
3,2.72,"COc1nccc2[nH]c(Nc3nnc(-c4ccc5c(c4)OCO5)o3)nc12 [KD026, N-(4-Methoxy-1H-imidazo[4,5-c]pyridin-2-yl)-5-(benzo[d][1,3]dioxol-5-yl)-1,3,4-oxadiazol-2-amine]"
4,2.83,"COc1nccc2[nH]c(Nc3nnc(-c4ccc(N(C)C)cc4)o3)nc12 [KD027, N-(4-Methoxy-1H-imidazo[4,5-c]pyridin-2-yl)-5-(4-(dimethylamino)phenyl)-1,3,4-oxadiazol-2-amine]"
5,9.12,"COc1nccc2[nH]c(Nc3nnc(-c4ccc(C)cc4)o3)nc12 [KD028, N-(4-methoxy-1H-imidazo[4,5-c]pyridin-2-yl)-5-(p-tolyl)-1,3,4-oxadiazol-2-amine]"
6,3.7,"COc1nccc2[nH]c(Nc3nnc(-c4ccc(C#N)cc4)o3)nc12 [KD031, 4-(5-((4-Methoxy-1H-imidazo[4,5-c]pyridin-2-yl)amino)-1,3,4-oxadiazol-2-yl) benzonitrile]"
7,1.94,"COc1ccc(-c2nnc(Nc3nc4c(OC)nccc4[nH]3)o2)cc1F [KD032, 5-(3-Fluoro-4-methoxyphenyl)-N-(4-methoxy-1H-imidazo[4,5-c]pyridin-2-yl)-1,3,4-oxadiazol-2-amine]"
8,7.6,"COc1ccc(-c2nnc(Nc3nc4c(OC)nccc4[nH]3)o2)cn1 [KD038, N-(4-Methoxy-1H-imidazo[4,5-c]pyridin-2-yl)-5-(6-methoxypyridin-3-yl)-1,3,4-oxadiazol-2-amine]"
9,6.86,"COc1nccc2[nH]c(Nc3nnc(-c4ccc(OC5CC5)cc4)o3)nc12 [KD040, 5-(4-Cyclopropoxyphenyl)-N-(4-methoxy-1H-imidazo[4,5-c]pyridin-2-yl)-1,3,4-oxadiazol-2-amine]"
10,22.6,"COc1nccc2[nH]c(Nc3nnc(-c4ccc(OC(C)C)cc4)o3)nc12 [KD041, 5-(4-Isopropoxyphenyl)-N-(4-methoxy-1H-imidazo[4,5-c]pyridin-2-yl)-1,3,4-oxadiazol-2-amine]"
11,> 100,"COc1nccc2[nH]c(Nc3nnc(-c4ccc(C(C)(C)C)cc4)o3)nc12 [KD042, 5-(4-(tert-Butyl)phenyl)-N-(4-methoxy-1H-imidazo[4,5-c]pyridin-2-yl)-1,3,4-oxadiazol-2-amine]"

# Continued, compound first:
row,Structure (SMILES),IC50 [µM]
1,"COc1ccc2[nH]c(Nc3nnc(-c4ccc(F)cc4)o3)nc2n1 [KD003, 5-(4-Fluorophenyl)-N-(5-methoxy-1H-imidazo[4,5-b]pyridin-2-yl)-1,3,4-oxadiazol-2-amine]",8.16
2,"Fc1ccc(-c2nnc(Nc3nc4cnc(Cl)cc4[nH]3)o2)cc1 [KD004, N-(6-Chloro-1H-imidazo[4,5-c]pyridin-2-yl)-5-(4-fluorophenyl)-1,3,4-oxadiazol-2-amine]",40.3
3,"Fc1ccc(-c2nnc(Nc3nc4cnc(C(F)(F)F)cc4[nH]3)o2)cc1 [KD005HCL, 5-(4-Fluorophenyl)-N-(6-(trifluoromethyl)-1H-imidazo[4,5-c]pyridin-2-yl)-1,3,4-oxadiazol-2-amine]",16.1
4,"Cc1cncc2nc(Nc3nnc(-c4ccc(F)cc4)o3)[nH]c12 [KD006TFA, 5-(4-Fluorophenyl)-N-(7-methyl-1H-imidazo[4,5-c]pyridin-2-yl)-1,3,4-oxadiazol-2-amine]",23.8
5,"COc1ccc2nc(Nc3nnc(-c4ccc(F)cc4)o3)sc2n1 [KD008, 5-(4-Fluorophenyl)-N-(5-methoxythiazolo[5,4-b]pyridin-2-yl)-1,3,4-oxadiazol-2-amine]",52.3
6,"Fc1ccc(-c2nnc(Nc3nc4cnc(N5CCOCC5)cc4[nH]3)o2)cc1 [KD009, 5-(4-Fluorophenyl)-N-(6-morpholino-1H-imidazo[4,5-c]pyridin-2-yl)-1,3,4-oxadiazol-2-amine]",15.4
7,"CN1CCN(c2cc3[nH]c(Nc4nnc(-c5ccc(F)cc5)o4)nc3cn2)CC1 [KD010, 5-(4-Fluorophenyl)-N-(6-(4-methylpiperazin-1-yl)-1H-imidazo[4,5-c]pyridin-2-yl)-1,3,4-oxadiazol-2-amine]",> 100
8,"Fc1ccc(-c2nnc(Nc3nc4cnc(Cl)nc4[nH]3)o2)cc1 [KD013, N-(2-Chloro-9H-purin-8-yl)-5-(4-fluorophenyl)-1,3,4-oxadiazol-2-amine]",37.6
9,"CS(=O)(=O)C1CCN(c2cc3[nH]c(Nc4nnc(-c5ccc(F)cc5)o4)nc3cn2)CC1 [KD015, 5-(4-Fluorophenyl)-N-(6-(4-(methylsulfonyl)piperidin-1-yl)-1H-imidazo[4,5-c]pyridin-2-yl)-1,3,4-oxadiazol-2-amine]",> 100
10,"Fc1ccc(-c2nnc(Nc3nc4ccnc(N5CCOCC5)c4[nH]3)o2)cc1 [KD016, 5-(4-Fluorophenyl)-N-(4-morpholino-3H-imidazo[4,5-c]pyridin-2-yl)-1,3,4-oxadiazol-2-amine]",10.2
11,"Fc1ccc(-c2nnc(Nc3nc4cncc(N5CCOCC5)c4[nH]3)o2)cc1 [KD017, 5-(4-Fluorophenyl)-N-(7-morpholino-1H-imidazo[4,5-c]pyridin-2-yl)-1,3,4-oxadiazol-2-amine]",16.3
12,"COc1cccc(-c2nccc3nc(Nc4nnc(-c5ccc(F)cc5)o4)[nH]c23)c1 [KD018, 5-(4-Fluorophenyl)-N-(4-(3-methoxyphenyl)-3H-imidazo[4,5-c]pyridin-2-yl)-1,3,4-oxadiazol-2-amine]",72.7
13,"COc1ccc(-c2nnc(Nc3nc4ncccc4o3)o2)cc1 [KD029, N-(5-(4-Methoxyphenyl)-1,3,4-oxadiazol-2-yl)oxazolo[4,5-b]pyridin-2-amine]",6.1
14,"Fc1ccc(-c2nnc(Nc3nc4ccnc(-c5ccc6c(c5)OCO6)c4[nH]3)o2)cc1 [KD030, N-(4-(Benzo[d][1,3]dioxol-5-yl)-3H-imidazo[4,5-c]pyridin-2-yl)-5-(4-fluorophenyl)-1,3,4-oxadiazol-2-amine]",19.9
